Measurements: article PMC10529583, “A new polymodal gating model of the proton-activated chloride channel” (PLOS Biology, 2023)

Columns and labels:
Assay type in all cases: cell-based
[1] = target: T1, human PAC channel (wt-PAC) (Homo sapiens, UniProt Q9H813, A81C); assay: whole-cell patch clamp, inhibition of current
T1 construct: gene PACC1; full-length, homotrimer; pCMV-blank, transiently expressed in PACC1-knockout HEK293T cells; library screen on endogenous PAC of HEK293T cells

[2] = target: T2, human PAC channel (wt-PAC) (Homo sapiens, UniProt Q9H813, F196A); assay: whole-cell patch clamp, inhibition of current
T2 construct: gene PACC1; full-length, homotrimer; pCMV-blank, transiently expressed in PACC1-knockout HEK293T cells; library screen on endogenous PAC of HEK293T cells

[3] = target: T3, human PAC channel (wt-PAC) (Homo sapiens, UniProt Q9H813, F196A/R237A); assay: whole-cell patch clamp, inhibition of current
T3 construct: gene PACC1; full-length, homotrimer; pCMV-blank, transiently expressed in PACC1-knockout HEK293T cells; library screen on endogenous PAC of HEK293T cells

[4] = target: T4, human PAC channel (wt-PAC) (Homo sapiens, UniProt Q9H813); assay: whole-cell patch clamp, activation of proton-evoked current
T4 construct: gene PACC1; full-length, homotrimer; pCMV-blank, transiently expressed in PACC1-knockout HEK293T cells; library screen on endogenous PAC of HEK293T cells

[5] = target: T4, human PAC channel (wt-PAC); assay: whole-cell patch clamp, inhibition of proton-evoked current; conditions: pH 4.6, open-state pore site (site 2, second site), voltage ramp -70 to +80 mV
[6] = target: T5, human PAC channel (wt-PAC) (Homo sapiens, UniProt Q9H813, R237A); assay: whole-cell patch clamp, effect of […] compound on current; conditions: root pH of the mutant; inhibited, not activated
T5 construct: gene PACC1; full-length, homotrimer; pCMV-blank, transiently expressed in PACC1-knockout HEK293T cells; library screen on endogenous PAC of HEK293T cells

[7] = target: T6, human PAC channel (wt-PAC) (Homo sapiens, UniProt Q9H813, A81C/L309A/P303A/T306A); assay: whole-cell patch clamp, inhibition of current
T6 construct: gene PACC1; full-length, homotrimer; pCMV-blank, transiently expressed in PACC1-knockout HEK293T cells; library screen on endogenous PAC of HEK293T cells

[8] = target: T7, human PAC channel (wt-PAC) (Homo sapiens, UniProt Q9H813, A321C); assay: whole-cell patch clamp, inhibition of basal current
T7 construct: gene PACC1; full-length, homotrimer; pCMV-blank, transiently expressed in PACC1-knockout HEK293T cells; library screen on endogenous PAC of HEK293T cells

[9] = target: T7, human PAC channel (wt-PAC); assay: whole-cell patch clamp, activation of current
[10] = target: T8, human PAC channel (wt-PAC) (Homo sapiens, UniProt Q9H813, P303A/T306A/L309A); assay: whole-cell patch clamp, activation of current; conditions: pH 5.34; activation (site 1)
T8 construct: gene PACC1; full-length, homotrimer; pCMV-blank, transiently expressed in PACC1-knockout HEK293T cells; library screen on endogenous PAC of HEK293T cells
T8 sequence (Q9H813 whole entry P303A/T306A/L309A): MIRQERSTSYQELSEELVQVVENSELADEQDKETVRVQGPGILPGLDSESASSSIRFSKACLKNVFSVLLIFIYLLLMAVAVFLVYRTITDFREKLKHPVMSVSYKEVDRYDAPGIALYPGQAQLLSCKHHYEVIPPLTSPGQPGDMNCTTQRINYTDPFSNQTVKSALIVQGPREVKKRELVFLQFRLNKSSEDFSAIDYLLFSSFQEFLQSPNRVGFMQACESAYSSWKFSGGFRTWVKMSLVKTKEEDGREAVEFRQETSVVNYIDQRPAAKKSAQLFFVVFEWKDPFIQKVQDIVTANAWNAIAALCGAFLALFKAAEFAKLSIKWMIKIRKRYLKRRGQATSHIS

T4 sequence (Q9H813 whole entry): as the sequence (Q9H813 whole entry P303A/T306A/L309A) above, with A303P, A306T, A309L counted along it
T7 sequence (Q9H813 whole entry A321C): as the sequence (Q9H813 whole entry P303A/T306A/L309A) above, with A303P, A306T, A309L, A321C counted along it
T1 sequence (Q9H813 whole entry A81C): as the sequence (Q9H813 whole entry P303A/T306A/L309A) above, with A81C, A303P, A306T, A309L counted along it
T2 sequence (Q9H813 whole entry F196A): as the sequence (Q9H813 whole entry P303A/T306A/L309A) above, with F196A, A303P, A306T, A309L counted along it
T3 sequence (Q9H813 whole entry F196A/R237A): as the sequence (Q9H813 whole entry P303A/T306A/L309A) above, with F196A, R237A, A303P, A306T, A309L counted along it
T6 sequence (Q9H813 whole entry A81C/P303A/T306A/L309A): as the sequence (Q9H813 whole entry P303A/T306A/L309A) above, with A81C counted along it
T5 sequence (Q9H813 whole entry R237A): as the sequence (Q9H813 whole entry P303A/T306A/L309A) above, with R237A, A303P, A306T, A309L counted along it

In the case of `Cc1occc1C(=O)Nc1ccc(I)cc1C(=O)O` [C77304, 5–iodo–2–(2–methylfuran–3–carboxamido)benzoicacid], the IC50 [1] is reported as 18.3 ± 3 µM, the IC50 [2] is reported as 3 ± 0.5 µM and the IC50 [3] is reported as 5.7 ± 0.9 µM. For the same compound, the EC50 [4] was 0.6 ± 0.2 µM, the IC50 [5] was 8.3 ± 1.0 µM and the “whole-cell patch clamp, effect of 5 μM compound on current” value [6] was “currents mediated by the PAC/R237A mutant, but not any others, were significantly inhibited”. It also gave an IC50 [7] of about 200 µM, an IC50 [8] of 11.8 ± 1.9 µM and an EC50 [9] of 1 ± 0.4 µM. The “whole-cell patch clamp, activation of current” value [10] was “the P303A/T306A/L309A mutations did not affect the activation effect of C77304 on the channel”.
